In patent US20220144848A1, “SUBSTITUTED OXOPYRIDINE DERIVATIVES” (Bayer Aktiengesellschaft, priority 2018, published 2022):

Key:
human plasma kallikrein = target: T1, human plasma kallikrein (Homo sapiens, UniProt P03952); assay: Determination of the plasma kallikrein activity (fluorogenic peptide substrate H-Pro-Phe-Arg-AMC); assay type: biochemical; settings: plasma kallikrein from Kordia, 15 min preincubation, 30 min at 22° C., fluorescence; some as mean values from multiple determinations
T1 construct: purchased Kordia
Description: (§1) To determine the plasma kallikrein inhibition of the substances according to the invention, a biochemical test system is used which utilizes the reaction of a peptidic plasma kallikrein substrate to determine the enzymatic activity of human plasma kallikrein. Here, plasma kallikrein cleaves from the peptidic plasma kallikrein substrate the C-terminal aminomethylcoumarin (AMC), the fluorescence of which is measured. The determinations are carried out in microtitre plates.
Test substances are dissolved in dimethyl sulfoxide and serially diluted in dimethyl sulfoxide (3000 μM to 0.0078 μM; resulting final concentrations in the test: 50 μM to 0.00013 μM). In each case 1 μl of the diluted substance solutions is placed into the wells of white microtitre plates from Greiner (384 wells). 20 μl of assay buffer (50 mM Tris/HCl pH 7.4; 100 mM sodium chloride solution; 5 mM of calcium chloride solution; 0.1% of bovine serum albumin) and 20 μl of plasma kallikrein from Kordia (0.6 nM in assay buffer) are then added successively. After 15 min of incubation, the enzyme reaction is started by addition of 20 μl of the substrate H-Pro-Phe-Arg-AMC dissolved in assay buffer (10 μM in assay buffer) from Bachem, the mixture is incubated at room temperature (22° C.) for 30 min and fluorescence is then measured (excitation: 360 nm, emission: 460 nm). The measured emissions of the test batches with test substance are compared to those of control batches without test substance (only dimethyl sulfoxide instead of test substance in dimethyl sulfoxide), and IC50 values are calculated from the concentration/activity relationships. Activity data from this test are listed in Table B below (some as mean values from multiple independent individual determinations): […]

human factor XIa = target: T2, human factor XIa (Homo sapiens, UniProt P03951); assay: Measurement of FXIa inhibition (fluorogenic peptide substrate Boc-Glu(OBzl)-Ala-Arg-AMC); assay type: biochemical; settings: factor XIa from Kordia, 15 min preincubation, 30 min at 22° C., fluorescence; some as mean values from multiple determinations
T2 construct: purchased Kordia
Description: as §1, with “The factor XIa” for “To determine the plasma kallikrein”, “invention is determined using” for “invention,”, “system” for “system is used”, “factor XIa” for “plasma kallikrein”, “factor XIa.” for “plasma kallikrein.”
Test substances are dissolved in dimethyl sulfoxide and serially diluted in dimethyl sulfoxide (3000 μM to 0.0078 μM; resulting final concentrations in the test: 50 μM to 0.00013 μM). In each case 1 μl of the diluted substance solutions is placed into the wells of white microtitre plates from Greiner (384 wells). 20 μl of assay buffer (50 mM of Tris/HCl pH 7.4; 100 mM of sodium chloride; 5 mM of calcium chloride; 0.1% of bovine serum albumin) and 20 μl of factor XIa from Kordia (0.45 nM in assay buffer) are then added successively. After 15 min of incubation, the enzyme reaction is started by addition of 20 μl of the factor XIa substrate Boc-Glu(OBzl)-Ala-Arg-AMC dissolved in assay buffer (10 μM in assay buffer) from Bachem, the mixture is incubated at room temperature (22° C.) for 30 min and fluorescence is then measured (excitation: 360 nm, emission: 460 nm). The measured emissions of the test batches with test substance are compared to those of control batches without test substance (only dimethyl sulfoxide instead of test substance in dimethyl sulfoxide), and IC50 values are calculated from the concentration/activity relationships.

T2 sequence (P03951 388-625 limits assumed): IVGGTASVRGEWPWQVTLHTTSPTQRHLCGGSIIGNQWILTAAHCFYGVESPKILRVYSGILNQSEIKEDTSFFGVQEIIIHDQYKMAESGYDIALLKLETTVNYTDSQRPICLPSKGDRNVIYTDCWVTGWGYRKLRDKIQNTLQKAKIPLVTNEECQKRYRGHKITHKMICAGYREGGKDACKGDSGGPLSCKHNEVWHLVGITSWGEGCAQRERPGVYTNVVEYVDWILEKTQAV
T2 sequence (P03951 19-387 partner limits assumed): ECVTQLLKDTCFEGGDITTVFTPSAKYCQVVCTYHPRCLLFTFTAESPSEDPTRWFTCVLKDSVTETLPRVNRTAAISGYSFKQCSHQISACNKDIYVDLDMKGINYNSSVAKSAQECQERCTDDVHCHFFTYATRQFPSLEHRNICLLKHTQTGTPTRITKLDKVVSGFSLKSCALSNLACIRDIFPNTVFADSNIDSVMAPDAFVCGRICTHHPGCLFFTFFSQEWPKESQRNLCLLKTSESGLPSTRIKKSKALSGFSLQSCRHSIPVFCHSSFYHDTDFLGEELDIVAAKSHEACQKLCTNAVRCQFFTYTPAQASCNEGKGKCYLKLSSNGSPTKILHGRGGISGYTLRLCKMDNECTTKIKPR
T1 sequence (P03952 391-638 limits assumed): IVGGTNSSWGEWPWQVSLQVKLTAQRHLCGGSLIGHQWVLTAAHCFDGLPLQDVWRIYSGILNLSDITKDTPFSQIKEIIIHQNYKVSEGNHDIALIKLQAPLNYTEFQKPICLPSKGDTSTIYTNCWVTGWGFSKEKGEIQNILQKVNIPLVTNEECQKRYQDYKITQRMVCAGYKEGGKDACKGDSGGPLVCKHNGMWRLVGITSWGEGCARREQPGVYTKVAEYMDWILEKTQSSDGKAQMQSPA
T1 sequence (P03952 20-390 partner limits assumed): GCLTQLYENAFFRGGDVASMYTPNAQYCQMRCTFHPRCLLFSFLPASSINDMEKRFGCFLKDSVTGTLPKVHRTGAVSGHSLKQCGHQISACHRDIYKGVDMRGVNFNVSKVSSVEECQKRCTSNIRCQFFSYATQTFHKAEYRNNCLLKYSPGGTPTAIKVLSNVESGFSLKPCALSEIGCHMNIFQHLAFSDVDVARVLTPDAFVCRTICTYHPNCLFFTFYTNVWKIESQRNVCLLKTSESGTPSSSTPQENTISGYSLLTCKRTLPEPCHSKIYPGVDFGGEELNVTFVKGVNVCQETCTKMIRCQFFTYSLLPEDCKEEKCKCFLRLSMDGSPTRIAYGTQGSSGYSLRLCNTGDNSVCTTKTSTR

IC50 (human plasma kallikrein)	IC50 (human factor XIa)	Compound
1100 nM	14 nM	NC(=O)c1ccc(NC(=O)C(C[C@@H]2CCCCO2)n2cc3c(cc2=O)-c2cc(Cl)ccc2CC(C(F)(F)F)OC3)cc1F (mixture of isomers) [Example 50, 4-({2-[11-Chloro-2-oxo-7-(trifluoromethyl)-7,8-dihydro-2H-[3]benzoxocino[5,6-c]pyridin-3(5H)-yl]-3-[(2S)-tetrahydro-2H-pyran-2-yl]propanoyl}amino)-2-fluorobenzamide]
790 nM	6.5 nM	NC(=O)c1ccc(NC(=O)C(C[C@@H]2CCCCO2)n2cc3c(cc2=O)-c2cc(Cl)ccc2CC(C(F)(F)F)OC3)cn1 (mixture of isomers) [Example 52, 5-({2-[11-Chloro-2-oxo-7-(trifluoromethyl)-7,8-dihydro-2H-[3]benzoxocino[5,6-c]pyridin-3(5H)-yl]-3-[(2S)-tetrahydro-2H-pyran-2-yl]propanoyl}amino)pyridine-2-carboxamide]
400 nM	2.8 nM	NC(=O)c1ccc(NC(=O)C(C[C@@H]2CCCCO2)n2cc3c(cc2=O)-c2cc(Cl)ccc2CC(C(F)(F)F)OC3)cc1 (mixture of isomers) [Example 54, 4-({2-[11-Chloro-2-oxo-7-(trifluoromethyl)-7,8-dihydro-2H-[3]benzoxocino[5,6-c]pyridin-3(5H)-yl]-3-[(2S)-tetrahydro-2H-pyran-2-yl]propanoyl}amino)benzamide]
740 nM	7.6 nM	NC(=O)c1ccc(NC(=O)C(C[C@@H]2COCCO2)n2cc3c(cc2=O)-c2cc(Cl)ccc2CC(C(F)(F)F)OC3)cc1F (mixture of isomers) [Example 56, 4-({2-[11-Chloro-2-oxo-7-(trifluoromethyl)-7,8-dihydro-2H-[3]benzoxocino[5,6-c]pyridin-3(5H)-yl]-3-[(2R)-1,4-dioxan-2-yl]propanoyl}amino)-2-fluorobenzamide]
230 nM	2.1 nM	NC(=O)c1ccc(NC(=O)C(C[C@@H]2COCCO2)n2cc3c(cc2=O)-c2cc(Cl)ccc2CC(C(F)(F)F)OC3)cc1 (mixture of isomers) [Example 58, 4-({2-[11-Chloro-2-oxo-7-(trifluoromethyl)-7,8-dihydro-2H-[3]benzoxocino[5,6-c]pyridin-3(5H)-yl]-3-[(2R)-1,4-dioxan-2-yl]propanoyl}amino)benzamide]
780 nM	26 nM	COCCC(C(=O)Nc1ccc(C(N)=O)c(F)c1)n1cc2c(cc1=O)-c1cc(Cl)ccc1CC(C(F)(F)F)OC2 (mixture of isomers) [Example 60, 4-({2-[11-Chloro-2-oxo-7-(trifluoromethyl)-7,8-dihydro-2H-[3]benzoxocino[5,6-c]pyridin-3(5H)-yl]-4-methoxybutanoyl}amino)-2-fluorobenzamide]
420 nM	8.1 nM	COCCC(C(=O)Nc1ccc(C(N)=O)cc1)n1cc2c(cc1=O)-c1cc(Cl)ccc1CC(C(F)(F)F)OC2 (mixture of isomers) [Example 62, 4-({2-[11-Chloro-2-oxo-7-(trifluoromethyl)-7,8-dihydro-2H-[3]benzoxocino[5,6-c]pyridin-3(5H)-yl]-4-methoxybutanoyl}amino)benzamide]
580 nM	42 nM	COCCC(C(=O)Nc1ccn2ncnc2c1)n1cc2c(cc1=O)-c1cc(Cl)ccc1CC(C(F)(F)F)OC2 (mixture of isomers) [Example 64, 2-[11-Chloro-2-oxo-7-(trifluoromethyl)-7,8-dihydro-2H-[3]benzoxocino[5,6-c]pyridin-3(5H)-yl]-4-methoxy-N-([1,2,4]triazolo[1,5-a]pyridin-7-yl)butanamide]
320 nM	5.1 nM	CO[C@@H](C)CC(C(=O)Nc1ccc(C(N)=O)cc1)n1cc2c(cc1=O)-c1cc(Cl)ccc1C[C@@H](C(F)(F)F)OC2 (mixture of isomers) [Example 66, 4-({(4S)-2-[(7S)-11-Chloro-2-oxo-7-(trifluoromethyl)-7,8-dihydro-2H-[3]benzoxocino[5,6-c]pyridin-3(5H)-yl]-4-methoxypentanoyl}amino)benzamide]
630 nM	11 nM	CC1Cc2ccc(Cl)cc2-c2cc(=O)n(C(C[C@@H]3CCCCO3)C(=O)Nc3ccc(C(N)=O)c(F)c3)cc2CO1 (single isomer, unassigned) [Example 1]
320 nM	5.5 nM	C[C@@H]1Cc2ccc(Cl)cc2-c2cc(=O)n([C@@H](C[C@@H]3CCCCO3)C(=O)Nc3ccc(C(N)=O)c(F)c3)cc2CO1 (single isomer, unassigned) [Example 2]
420 nM	2.4 nM	C[C@@H]1Cc2ccc(Cl)cc2-c2cc(=O)n([C@@H](C[C@@H]3CCCCO3)C(=O)Nc3ccc(C(N)=O)nc3)cc2CO1 (single isomer, unassigned) [Example 4]
140 nM	1.4 nM	C[C@@H]1Cc2ccc(Cl)cc2-c2cc(=O)n([C@@H](C[C@@H]3CCCCO3)C(=O)Nc3ccc(C(N)=O)cc3)cc2CO1 (single isomer, unassigned) [Example 6]
320 nM	6.6 nM	C[C@@H]1Cc2ccc(Cl)cc2-c2cc(=O)n([C@@H](C[C@@H]3COCCO3)C(=O)Nc3ccc(C(N)=O)c(F)c3)cc2CO1 (single isomer, unassigned) [Example 8]
87 nM	1.2 nM	C[C@@H]1Cc2ccc(Cl)cc2-c2cc(=O)n([C@@H](C[C@@H]3COCCO3)C(=O)Nc3ccc(C(N)=O)cc3)cc2CO1 (single isomer, unassigned) [Example 10]
42 nM	3.3 nM	C[C@@H]1Cc2ccc(Cl)cc2-c2cc(=O)n([C@@H](C[C@@H]3COCCO3)C(=O)Nc3ccc4nn(C)nc4c3)cc2CO1 (single isomer, unassigned) [Example 12]
205 nM	4.6 nM	CO[C@@H](C)C[C@@H](C(=O)Nc1ccc(C(N)=O)cc1)n1cc2c(cc1=O)-c1cc(Cl)ccc1C[C@@H](C)OC2 (single isomer, unassigned) [Example 13]
220 nM	3.9 nM	CO[C@H](C[C@@H](C(=O)Nc1ccc(C(N)=O)cc1)n1cc2c(cc1=O)-c1cc(Cl)ccc1C[C@@H](C)OC2)C1CC1 (single isomer, unassigned) [Example 14]
140 nM	3.4 nM	CO[C@H](C[C@@H](C(=O)Nc1ccc(C(N)=O)cc1)n1cc2c(cc1=O)-c1cc(Cl)ccc1C[C@@H](C)OC2)C(F)F (single isomer, unassigned) [Example 15]
72 nM	2 nM	C[C@@H]1Cc2ccc(Cl)cc2-c2cc(=O)n([C@@H](CCOC(F)F)C(=O)Nc3ccc(C(N)=O)cc3)cc2CO1 (single isomer, unassigned) [Example 17]
110 nM	3.6 nM	C[C@@H]1Cc2ccc(Cl)cc2-c2cc(=O)n([C@@H](C[C@H](C)OC(F)F)C(=O)Nc3ccc(C(N)=O)cc3)cc2CO1 (single isomer, unassigned) [Example 19]
93 nM	6.6 nM	CC(C)OCC[C@@H](C(=O)Nc1ccc(C(N)=O)cc1)n1cc2c(cc1=O)-c1cc(Cl)ccc1C[C@@H](C)OC2 (single isomer, unassigned) [Example 20]
280 nM	19 nM	C[C@@H]1Cc2ccc(Cl)cc2-c2cc(=O)n([C@@H](CCOC(C)(C)C)C(=O)Nc3ccc(C(N)=O)c(F)c3)cc2CO1 (single isomer, unassigned) [Example 22]
